Drawing on PubChem BioAssay AID463099 (The Scripps Research Institute Molecular Screening Center, 2010), this text covers MIC for 6 molecules.

Usually MIC stands for the lowest concentration found to suppress growth.

This experiment relates to IMP-1-expressing E. coli growth, with imipenem, MIC. As to the kind of experiment: MIC in IMP1-transformed E. coli with imipenem – imipenem co-treatment, counter-screen for IMP-1/VIM-2 inhibitor project, late-stage follow-up (AID 463099). For orientation: Counterscreens check selectivity or assay interference.
In the case of `Cc1cc[c]([Hg+])cc1`, the MIC was 0.94 µM.
In the case of `O=C(O)c1ccc[c]([Hg+])c1`, the MIC is 3.75 µM.
On to `COc1cccc[c]1[Hg+]`, for which the MIC is 1.09 µM.
For `CC(=O)Nc1cc[c]([Hg+])cc1` the value was 2.5 µM; for `[Hg+][c]1ccccc1`, 0.63 µM; for `O=C(O)c1cc[c]([Hg][Cl])cc1`, 9.38 µM.
